Test results from ChEMBL document CHEMBL3885881, “DrugMatrix”.

Organism: Rattus norvegicus
Experiment: DrugMatrix - Regimen: Daily Repeat
Assay type: toxicity, organism-based, Sprague-Dawley
Design: regimen Daily Repeat, gender Male, age 6-8 weeks
Settings: in vivo, po, route oral GAVAGE, […]; for ABSOLUTE BASOPHIL / ABSOLUTE EOSINOPHIL / ABSOLUTE LYMPHOCYTE / ABSOLUTE MONOCYTE / ABSOLUTE SEGMENTED NEUTROPHIL / BASOPHIL / EOSINOPHIL / ERYTHROCYTE COUNT / HEMATOCRIT / HEMOGLOBIN / LEUKOCYTE COUNT / LYMPHOCYTE / MEAN CORPUSCULAR HEMOGLOBIN / MEAN CORPUSCULAR HEMOGLOBIN CONCENTRATION / MEAN CORPUSCULAR VOLUME / MONOCYTE / NEUTROPHIL / NUCLEATED RED BLOOD CELLS / PLATELET COUNT: tissue Blood; for ALANINE AMINOTRANSFERASE / ALBUMIN / ALKALINE PHOSPHATASE / ASPARTATE AMINOTRANSFERASE / BLOOD UREA NITROGEN / CARBON DIOXIDE / CHLORIDE / CHOLESTEROL / CREATINE PHOSPHOKINASE / CREATININE / GLUCOSE / LACTATE DEHYDROGENASE / LIPASE / PHOSPHORUS / POTASSIUM / SODIUM / TOTAL BILIRUBIN / TOTAL PROTEIN / URIC ACID: tissue Plasma
[1] = 0 mg/kg, 72 h, dose level Control, time 3 day
[2] = 0 mg/kg, 120 h, dose level Control, time 5 day
[3] = 3 mg/kg, 72 h, dose level Low, time 3 day

Structure (SMILES): Cc1cccc(Nc2ccncc2S(=O)(=O)NC(=O)NC(C)C)c1 [TORSEMIDE]
- ABSOLUTE BASOPHIL [1]: 0 CELLS/uL
- ABSOLUTE EOSINOPHIL [1]: 41.83 CELLS/uL
- ABSOLUTE LYMPHOCYTE [1]: 8545.5 CELLS/uL
- ABSOLUTE MONOCYTE [1]: 240 CELLS/uL
- ABSOLUTE SEGMENTED NEUTROPHIL [1]: 906 CELLS/uL
- BASOPHIL [1]: 0%
- EOSINOPHIL [1]: 0.33%
- ERYTHROCYTE COUNT [1]: 5.6 x10E6/uL
- HEMATOCRIT [1]: 35.4%
- HEMOGLOBIN [1]: 13.42 G/DL
- LEUKOCYTE COUNT [1]: 9.73 x10E3/uL
- LYMPHOCYTE [1]: 87.83%
- MEAN CORPUSCULAR HEMOGLOBIN [1]: 23.98 pg
- MEAN CORPUSCULAR HEMOGLOBIN CONCENTRATION [1]: 37.92 G/DL
- MEAN CORPUSCULAR VOLUME [1]: 63.3 fL
- MONOCYTE [1]: 2.5%
- NEUTROPHIL [1]: 9.33%
- NUCLEATED RED BLOOD CELLS [1]: 0 /100WBC
- PLATELET COUNT [1]: 1032 x10E3/uL
- ALANINE AMINOTRANSFERASE [1]: 72.83 u/L
- ALBUMIN [1]: 4 G/DL
- ALKALINE PHOSPHATASE [1]: 322.83 u/L
- ASPARTATE AMINOTRANSFERASE [1]: 102.67 u/L
- BLOOD UREA NITROGEN [1]: 12 mg/dL
- CARBON DIOXIDE [1]: 34.33 mmol/L
- CHLORIDE [1]: 97.67 MEQ/L
- CHOLESTEROL [1]: 82.5 mg/dL
- CREATINE PHOSPHOKINASE [1]: 410.33 u/L
- CREATININE [1]: 0.18 mg/dL
- GLUCOSE [1]: 164.5 mg/dL
- LACTATE DEHYDROGENASE [1]: 119.5 u/L
- LIPASE [1]: 11.83 u/L
- PHOSPHORUS [1]: 9.52 mg/dL
- POTASSIUM [1]: 5.56 MEQ/L
- SODIUM [1]: 142.48 MEQ/L
- TOTAL BILIRUBIN [1]: 0.18 mg/dL
- TOTAL PROTEIN [1]: 5.77 G/DL
- URIC ACID [1]: 0.48 mg/dL
- ABSOLUTE BASOPHIL [2]: 0 CELLS/uL
- ABSOLUTE EOSINOPHIL [2]: 0 CELLS/uL
- ABSOLUTE LYMPHOCYTE [2]: 9065 CELLS/uL
- ABSOLUTE MONOCYTE [2]: 341.33 CELLS/uL
- ABSOLUTE SEGMENTED NEUTROPHIL [2]: 527 CELLS/uL
- BASOPHIL [2]: 0%
- EOSINOPHIL [2]: 0%
- ERYTHROCYTE COUNT [2]: 5.25 x10E6/uL
- HEMATOCRIT [2]: 34.08%
- HEMOGLOBIN [2]: 13.5 G/DL
- LEUKOCYTE COUNT [2]: 9.93 x10E3/uL
- LYMPHOCYTE [2]: 91.17%
- MEAN CORPUSCULAR HEMOGLOBIN [2]: 25.7 pg
- MEAN CORPUSCULAR HEMOGLOBIN CONCENTRATION [2]: 39.62 G/DL
- MEAN CORPUSCULAR VOLUME [2]: 64.93 fL
- MONOCYTE [2]: 3.33%
- NEUTROPHIL [2]: 5.5%
- NUCLEATED RED BLOOD CELLS [2]: 0 /100WBC
- PLATELET COUNT [2]: 1077.5 x10E3/uL
- ALANINE AMINOTRANSFERASE [2]: 57.83 u/L
- ALBUMIN [2]: 4.07 G/DL
- ALKALINE PHOSPHATASE [2]: 319.17 u/L
- ASPARTATE AMINOTRANSFERASE [2]: 83.33 u/L
- BLOOD UREA NITROGEN [2]: 13.67 mg/dL
- CARBON DIOXIDE [2]: 30.83 mmol/L
- CHLORIDE [2]: 98.33 MEQ/L
- CHOLESTEROL [2]: 64.83 mg/dL
- CREATINE PHOSPHOKINASE [2]: 263.67 u/L
- CREATININE [2]: 0.2 mg/dL
- GLUCOSE [2]: 182.83 mg/dL
- LACTATE DEHYDROGENASE [2]: 124 u/L
- LIPASE [2]: 10.5 u/L
- PHOSPHORUS [2]: 10 mg/dL
- POTASSIUM [2]: 5.78 MEQ/L
- SODIUM [2]: 142.48 MEQ/L
- TOTAL BILIRUBIN [2]: 0.2 mg/dL
- TOTAL PROTEIN [2]: 6 G/DL
- URIC ACID [2]: 0.7 mg/dL
- ABSOLUTE BASOPHIL [3]: 0 CELLS/uL
- ABSOLUTE EOSINOPHIL [3]: 53.33 CELLS/uL
- ABSOLUTE LYMPHOCYTE [3]: 14854 CELLS/uL
- ABSOLUTE MONOCYTE [3]: 155 CELLS/uL
- ABSOLUTE SEGMENTED NEUTROPHIL [3]: 1071 CELLS/uL
- BASOPHIL [3]: 0%
- EOSINOPHIL [3]: 0.33%
- ERYTHROCYTE COUNT [3]: 5.34 x10E6/uL
- HEMATOCRIT [3]: 33.73%
- HEMOGLOBIN [3]: 13.07 G/DL
- LEUKOCYTE COUNT [3]: 16.13 x10E3/uL
- LYMPHOCYTE [3]: 92%
- MEAN CORPUSCULAR HEMOGLOBIN [3]: 24.43 pg
- MEAN CORPUSCULAR HEMOGLOBIN CONCENTRATION [3]: 38.7 G/DL
- MEAN CORPUSCULAR VOLUME [3]: 63.07 fL
- MONOCYTE [3]: 1%
- NEUTROPHIL [3]: 6.67%
- NUCLEATED RED BLOOD CELLS [3]: 0 /100WBC
- PLATELET COUNT [3]: 969.67 x10E3/uL
- ALANINE AMINOTRANSFERASE [3]: 67.33 u/L
- ALBUMIN [3]: 3.93 G/DL
- ALKALINE PHOSPHATASE [3]: 375.67 u/L
- ASPARTATE AMINOTRANSFERASE [3]: 84.33 u/L
- BLOOD UREA NITROGEN [3]: 11.33 mg/dL
- CARBON DIOXIDE [3]: 26.67 mmol/L
- CHLORIDE [3]: 101.33 MEQ/L
- CHOLESTEROL [3]: 69.33 mg/dL
- CREATINE PHOSPHOKINASE [3]: 255 u/L
- CREATININE [3]: 0.29 mg/dL
- GLUCOSE [3]: 162 mg/dL
- LACTATE DEHYDROGENASE [3]: 201 u/L
- LIPASE [3]: 11.67 u/L
- PHOSPHORUS [3]: 10.23 mg/dL
- POTASSIUM [3]: 5.87 MEQ/L
- SODIUM [3]: 143.83 MEQ/L
- TOTAL BILIRUBIN [3]: 0.2 mg/dL
- TOTAL PROTEIN [3]: 5.6 G/DL
- URIC ACID [3]: 0.93 mg/dL
